Assays:
[1] = system: human colon cancer Co5776; assay: Antitumor activity in human colon xenograft Co5776; format: in vivo
Experimental: (§1) Fragments of human colon cancers Co5776 and Co6044 are implanted subcutaneously in NCR female mice (7-8 mice/group). Gemcitabine (120 mg/kg) and gemcitabine-5′-elaidic acid ester (40 mg/kg) are administered intraperitoneally, every third day for five times.
NCr female mice implanted subcutaneously with human colon carcinoma fragments, Co5776, are treated intraperitoneally. Two different schedules of gemcitabine-5′-elaidic acid ester are administered, once weekly times 2 (Days 11 and 18), and every third day times 5 (Days 11, 14, 17, 20, and 23). Antitumor activity of gemcitabine-5′-elaidic acid ester is similar for 150 mg/kg once weekly, administered twice or 40 mg/kg every third day administered five times.

[2] = system: human colon cancer Co6044; assay: Antitumor activity in human colon xenograft Co6044 (intraperitoneal); format: in vivo; details: intraperitoneally every third day five times
Experimental: as §1

P388 leukemia cells = assay: Antitumor effect in P388 murine leukemia model; format: in vivo; details: B6D2F1 female mice; intraperitoneal; single doses or daily for 10 consecutive days; all tested doses and schedules
[3] = system: Co-26 murine colon cancer cells; assay: Antitumor effect in Co-26 liver metastasis model; format: in vivo; details: single dose 75 mg/kg
Experimental: Antitumor effect of single dose of gemcitabine-5′-elaidic acid ester or gemcitabine is tested in Balb/C female mice injected with Co-26 murine colon cancer cells in the spleen (a liver metastasis model). […] The activity of gemcitabine is similar.

CEM cells = assay: Intracellular dFdCTP level in CEM cells with or without dipyridamole (HPLC); format: cell-based, human
Experimental: hENT1 can inhibited in vitro by various agents including dipyridamole, NBMPR, and NBI. In order to test whether gemcitabine-5′-elaidate entry into the cells is independent of a nucleoside transporter such as hENT1, dipyridamole is used to block hENT1. The intracellular level of dFdCTP is determined in CEM cells after 60 minutes exposure to either dFdC or gemcitabine-5′-elaidate, with or without the addition of dipyridamole (DP). The compounds are administered at 10 μM, and the triphosphates are determined using HPLC. Deamination is blocked using tetrahydrouridine.

A549 human NSCLC = assay: Combination study in vitro, growth inhibition, median effect analysis (A549); format: cell-based
Experimental: (§2) The cell lines A549 human NSCLC and WiDr human colon carcinoma are used to determine the combination index and also the effect of Gemcitabine-5′-elaidate on the cell cycle. A sulforhodamine B colorimetric assay is used to determine growth inhibition after 72 hours. Pemetrexed combinations are tested using the MTT assay. Combinations with pemetrexed are also tested in the WiDr-LF cell line, which are WiDr cells cultured under low folate conditions. The IC25 and IC50 values (inhibitory concentrations at 25% or 50%, respectively) are calculated. The IC25 value is used for combinations with serial dilutions of oxaliplatin or docetaxel, and the IC50 value is used for pemetrexed combinations. Median effect analysis is performed.

[4] = system: WiDr human colon carcinoma; assay: Combination study in vitro, growth inhibition, median effect analysis (WiDr); format: cell-based
Experimental: as §2

A549 = assay: Platinum accumulation in DNA (A549); format: cell-based, human; details: oxaliplatin 200 μM combined with Gemcitabine-5′-elaidate 0.004 μM
Experimental: (§3) The effect on DNA platinum accumulation in DNA after exposure to oxaliplatin and oxaliplatin combined with Gemcitabine-5′-elaidate (oxaliplatin [200 μM] combined with Gemcitabine-5′-elaidate [0.004 μM]) is also determined.

WiDr cell line [5] = assay: Platinum accumulation in DNA (WiDr); format: cell-based, human; details: oxaliplatin 200 μM combined with Gemcitabine-5′-elaidate 0.004 μM
Experimental: as §3

A549 cell line = assay: Cell cycle analysis, flow cytometry with propidium iodide (A549); format: cell-based, human
Experimental: (§4) The effect on cell cycle is determined after 72 h exposure using flow cytometry combined with propidium iodide staining For cell cycle analysis, the concentration range is from 0.0005 μM to 0.05 μM in the A549 cell line and from 0.001 μM to 0.1 μM in the WiDr cell line. […] The effect on cell cycle is obtained also for the combinations with pemetrexed.

WiDr cell line [6] = assay: Cell cycle analysis, flow cytometry with propidium iodide (WiDr); format: cell-based, human
Experimental: as §4

CEM and CEM-Ara-C/8 = assay: Tumor cell killing in vitro in CEM and hENT1-deficient CEM-Ara-C/8 (FIGS. 5A-5B); format: cell-based; details: CEM vs hENT1-deficient CEM-Ara-C/8
Text: CEM: T-lymphoblastic leukemia cell line. CEM-Ara-C/8: Clonal derivative of CEM with hENT1 transporter deficiency.

[7] = 72 hours, sulforhodamine B assay
[8] = 72 h exposure, 0.001 μM to 0.1 μM

With `CCCCCCCC/C=C/CCCCCCCC(=O)OC[C@H]1O[C@@H](n2ccc(N)nc2=O)C(F)(F)[C@@H]1O` [gemcitabine-5′-elaidic acid ester] the “activity compared with gemcitabine” value ([1]; 40 mg/kg vs gemcitabine 120 mg/kg, intraperitoneally every third day five times) was “similar”, the antitumor effect ([1]; NCR female mice, intraperitoneally every third day five times, gemcitabine 120 mg/kg, gemcitabine-5′-elaidic acid ester 40 mg/kg) was “Significant antitumor effect” and the “antitumor activity, comparison of schedules” value ([1]; NCr female mice, intraperitoneal, 150 mg/kg once weekly times 2 vs 40 mg/kg every third day times 5) was “similar”. For the same compound, the “activity compared with gemcitabine” value ([2]; 40 mg/kg vs gemcitabine 120 mg/kg) was “similar”, the antitumor effect ([2]; NCR female mice, gemcitabine 120 mg/kg, gemcitabine-5′-elaidic acid ester 40 mg/kg) was “Significant antitumor effect” and the antitumor activity (P388 leukemia cells) was “significant antitumor activity”. For the same compound, the antitumor activity ([3]; Balb/C female mice, Co-26 cells in the spleen) was “significant antitumor activity”, the hematological parameters [3] was “moderate reduction” and the “mean survival in days and Treated/Control (T/C, %) over saline control” value [3] was “significant increase”. The “dFdCTP levels with inhibitor (DP) compared to without inhibitor” value (CEM cells; 10 μM) was “even increased”, the “time of maximum dFdCTP concentration” value (CEM cells; 10 μM, after exposure) was “reached at the last time point measured” and the “dFdCTP accumulation with blocked nucleoside transporters (FIG. 3)” value (CEM cells; transporters blocked) was “accumulates in cells despite blocking transporters”. The “combination effect with docetaxel” value (A549 human NSCLC; [7]) was “antagonistic”, the “combination effect with oxaliplatin” value (A549 human NSCLC; [7]) was “synergistic” and the “combination effect with pemetrexed” value (A549 human NSCLC; MTT assay) was “Antagonistic activity”. The “combination effect with docetaxel” value [4, 7] was “antagonistic”, the “combination effect with oxaliplatin” value [4, 7] was “synergistic” and the “combination effect with pemetrexed” value ([4]; MTT assay) was “Antagonistic activity”. For the same compound, the “platinum adducts in DNA, oxaliplatin combined vs oxaliplatin alone” value (A549) was “but not in A549”, the “platinum adducts in DNA, oxaliplatin combined vs oxaliplatin alone” value (WiDr cell line [5]) was “increase of platinum adducts” and the “effect on cell cycle” value (A549 cell line; 72 h exposure, 0.0005 μM to 0.05 μM) was “no effect on cell cycle”. The “G0/G1 phase, combination with pemetrexed” value (A549 cell line; increased from 8.8%) was 14.1%, the “S phase, combination with pemetrexed” value (A549 cell line; increased from 23.1%) was 28.5% and the “G2/M phase, combination with pemetrexed” value (WiDr cell line [6]) was “only a marginal increase”. The S phase accumulation (WiDr cell line [6]; [8]) was “S phase accumulation at the two highest concentrations”, the “sub G1 accumulation” value (WiDr cell line [6]; [8]) was “dose dependent sub G1 accumulation” and the “tumor cell killing in relation to hENT1” value (CEM and CEM-Ara-C/8) was “kills tumor cells in vitro independent of hENT1”.

— patent publication US20130005678A1, “Methods and Compositions for Treating or Ameliorating Cancer Using Gemcitabine-5'-Elaidate” (CLAVIS PHARMA ASA, priority 2010, published 2013)
